In patent US11986493B2 (University of Pittsburgh—Of the Commonwealth System of …, priority 2013, dated 2024):

System: subjects with pulmonary hypertension (WHO group I PAH, WHO group III PH)
Assay: Right heart catheterization: right heart/pulmonary artery hemodynamics, thermodilution cardiac output, PVR and SVR after inhaled NO and nebulized nitrite
Type: in vivo, human
Protocol: A total of 6 subjects with a confirmed diagnosis of pulmonary hypertension and meeting all inclusion/exclusion criteria were enrolled in the study which entailed a single right heart catheterization. The study population consisted of subjects with WHO group I PAH (n=3) and subjects with WHO group III PH (n=3) which received the dose escalation paradigm:
During the study right heart/pulmonary artery hemodynamics were measured as well as noninvasive systemic blood pressure monitoring and simultaneous RV echocardiography. Subjects were tested for the changes in pulmonary vascular resistance (PVR) measured by right heart catheterization and using thermodilution cardiac output measurement at time zero, at times 15, 30 and 45 minutes after completion of each nebulization dose.
Following right heart catheterization, the patient was stabilized for 20 minutes. Baseline blood collections and hemodynamic measurements were performed, followed by treatment with 40 ppm inhaled NO gas for […] with repeat hemodynamic measurements performed.
After stopping inhaled NO gas, a single dose of sildenafil was given if patients were on background sildenafil therapy at previously prescribed doses. 45-minutes after sildenafil dose baseline hemodynamics were performed.
Subjects were monitored carefully during and after the study treatment.
The study was conducted at the 3rd FL Catheterization Laboratory at Presbyterian Hospital of the University of Pittsburgh Medical Center (UPMC). Baseline vasoreactivity was recorded after Inhaled NO at 40 ppm for […]. […] Subjects were instructed to breathe as calmly, and deeply as possible until no more mist was formed in the nebulizer chamber. Subjects were also instructed to hold their breath for approximately 10 seconds after inhalation to allow the study drug to reach deep into the lungs.

[1] = Patient 4, nitrite 45 mg inhaled, 15 min
[2] = Patient 4, nitrite 45 mg inhaled, 30 min
[3] = Patient 4, nitrite 45 mg inhaled, 45 min
[4] = Patient 4, nitrite 45 mg inhaled, 60 min
[5] = Patient 4, nitrite 90 mg inhaled, 15 min
[6] = Patient 4, nitrite 90 mg inhaled, 30 min
[7] = Patient 4, nitrite 90 mg inhaled, 45 min
[8] = Patient 4, nitrite 90 mg inhaled, 60 min
[9] = Patient 5, nitrite 45 mg inhaled, 15 min
[10] = Patient 5, nitrite 45 mg inhaled, 30 min
[11] = Patient 5, nitrite 45 mg inhaled, 45 min
[12] = Patient 5, nitrite 45 mg inhaled, 60 min

SMILES: O=NO [nitrite, sodium nitrite]
- mPAP (Patient 3, nitrite 90 mg inhaled, 60 min): 37.34
- CI [1]: 3.07
- CO [1]: 5.37
- PAD [1]: 26
- PAS [1]: 69
- PCWP [1]: 7
- PVR [1]: 6.21
- PVR/SVR [1]: 0.36
- RA [1]: 3
- RVD [1]: 3
- RVS [1]: 74
- SVR [1]: 17.01
- TPR [1]: 7.51
- mPAP [1]: 40.34
- CI [2]: 2.69
- CO [2]: 4.7
- PAD [2]: 24
- PAS [2]: 70
- PCWP [2]: 8
- PVR [2]: 6.67
- PVR/SVR [2]: 0.34
- RA [2]: 4
- RVD [2]: 3
- RVS [2]: 67
- SVR [2]: 19.58
- TPR [2]: 8.37
- mPAP [2]: 39.34
- CI [3]: 2.71
- CO [3]: 4.75
- PAD [3]: 23
- PAS [3]: 68
- PCWP [3]: 9
- PVR [3]: 6.11
- PVR/SVR [3]: 0.32
- RA [3]: 2
- RVD [3]: 2
- RVS [3]: 68
- SVR [3]: 18.95
- TPR [3]: 8.00
- mPAP [3]: 38.01
- CI [4]: 3.03
- CO [4]: 5.31
- PAD [4]: 21
- PAS [4]: 69
- PCWP [4]: 8
- PVR [4]: 5.46
- PVR/SVR [4]: 0.33
- RA [4]: 3
- RVD [4]: 2
- RVS [4]: 68
- SVR [4]: 16.57
- TPR [4]: 6.97
- mPAP [4]: 37.01
- CI [5]: 3.08
- CO [5]: 5.39
- PAD [5]: 23
- PAS [5]: 71
- PCWP [5]: 8
- PVR [5]: 5.75
- PVR/SVR [5]: 0.39
- RA [5]: 3
- RVD [5]: 3
- RVS [5]: 62
- SVR [5]: 14.78
- TPR [5]: 7.24
- mPAP [5]: 39.01
- CI [6]: 3.03
- CO [6]: 5.3
- PAD [6]: 22
- PAS [6]: 70
- PCWP [6]: 7
- PVR [6]: 5.85
- PVR/SVR [6]: 0.37
- RA [6]: 4
- RVD [6]: 3
- RVS [6]: 70
- SVR [6]: 15.73
- TPR [6]: 7.17
- mPAP [6]: 38.01
- CI [7]: 3.08
- CO [7]: 5.39
- PAD [7]: 23
- PAS [7]: 69
- PCWP [7]: 7
- PVR [7]: 5.81
- PVR/SVR [7]: 0.39
- RA [7]: 2
- RVD [7]: 2
- RVS [7]: 74
- SVR [7]: 14.91
- TPR [7]: 7.11
- mPAP [7]: 38.34
- CI [8]: 3.03
- CO [8]: 5.3
- PAD [8]: 21
- PAS [8]: 67
- PCWP [8]: 8
- PVR [8]: 5.35
- PVR/SVR [8]: 0.33
- RA [8]: 2
- RVD [8]: 3
- RVS [8]: 70
- SVR [8]: 16.04
- TPR [8]: 6.86
- mPAP [8]: 36.34
- CI [9]: 2.80
- CO [9]: 4.95
- PAD [9]: 16
- PAS [9]: 66
- PCWP [9]: 3
- PVR [9]: 5.99
- PVR/SVR [9]: 0.48
- RA [9]: 1
- RVD [9]: 1
- RVS [9]: 68
- SVR [9]: 12.53
- TPR [9]: 6.60
- mPAP [9]: 32.67
- CI [10]: 2.50
- CO [10]: 4.43
- PAD [10]: 15
- PAS [10]: 66
- PCWP [10]: 3
- PVR [10]: 6.55
- PVR/SVR [10]: 0.44
- RA [10]: 1
- SVR [10]: 14.75
- TPR [10]: 7.22
- mPAP [10]: 32.00
- CI [11]: 2.75
- CO [11]: 4.86
- PA sat [11]: 60
- PAD [11]: 14
- PAS [11]: 67
- PCWP [11]: 4
- PVR [11]: 5.69
- PVR/SVR [11]: 0.42
- RA [11]: 1
- SVR [11]: 13.65
- TPR [11]: 6.52
- mPAP [11]: 31.67
- CI [12]: 2.52
- CO [12]: 4.46
- PAD [12]: 17
- PAS [12]: 74
